Nine compounds from US20080200454A1, “CARBON-LINKED TETRAHYDRO-PYRAZOLO-PYRIDINE MODULATORS OF CATHEPSIN S” (priority 2007, published 2008) can be followed below.

Structures are written as SMILES.

For orientation: IC50 means the concentration that gives 50% inhibition.

The target of the first assay is Recombinant human cathepsin S (CatS) (Homo sapiens, UniProt P25774). Briefly: Recombinant human cathepsin S (CatS) inhibition assay, fluorogenic substrate Z-Valine-Valine-Arginine-AMC.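 Further: Baculovirus-expressed CatS in pH 5.0 sodium acetate buffer with DTT and NaCl, fluorescence read each minute over 20 min, inhibition derived from rate slope.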
Recombinant human cathepsin S (CatS), sequence (P25774 115-331): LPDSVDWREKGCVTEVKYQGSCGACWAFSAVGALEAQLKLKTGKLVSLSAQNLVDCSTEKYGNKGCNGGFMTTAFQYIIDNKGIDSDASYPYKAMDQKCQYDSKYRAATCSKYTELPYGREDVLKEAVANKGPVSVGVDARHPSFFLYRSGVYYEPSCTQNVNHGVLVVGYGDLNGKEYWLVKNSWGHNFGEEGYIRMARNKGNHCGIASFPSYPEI
Settings: not given
With `CS(=O)(=O)N1CCc2c(c(-c3ccc(Cl)c(C#Cc4ccc(CNCc5ccc(Cl)cc5)cc4)c3)nn2CCCN2CCN(c3ccc(O)cc3)CC2)C1` [Example 410, 4-(4-{3-[3-(4-Chloro-3-{[4-({[(4-chlorophenyl)methyl]amino}methyl)phenyl]ethynyl}phenyl)-5-(methylsulfonyl)-4,5,6,7-tetrahydro-1H-pyrazolo[4,3-c]pyridin-1-yl]propyl}piperazin-1-yl)phenol], the IC50 was 40 nM.
For `CC(C)(C)OC(=O)N1CCc2ccc(C#Cc3cc(-c4nn(CCCN5CCOCC5)c5c4CN(S(C)(=O)=O)CC5)ccc3Cl)cc2C1` [Example 370, 1,1-Dimethylethyl 7-({2-chloro-5-[5-(methylsulfonyl)-1-(3-morpholin-4-ylpropyl)-4,5,6,7-tetrahydro-1H-pyrazolo[4,3-c]pyridin-3-yl]phenyl}ethynyl)-3,4-dihydroisoquinoline-2(1H)-carboxylate], the IC50 came out at 720 nM.
Consider `NC(=O)N1CCc2c(c(-c3ccc(Cl)c(C#Cc4ccc(Cl)c(CN5CCOCC5)c4)c3)nn2CCCN2CCCCC2)C1` [Example 602, 3-(4-Chloro-3-{[4-chloro-3-(morpholin-4-ylmethyl)phenyl]ethynyl}phenyl)-1-(3-piperidin-1-ylpropyl)-1,4,6,7-tetrahydro-5H-pyrazolo[4,3-c]pyridine-5-carboxamide], for which the concentration for half-maximal inhibition (IC50) turned out to be 40 nM.
As for `CS(=O)(=O)N1CCc2c(c(-c3ccc(Cl)c(C#CCCc4ccccc4)c3)nn2CCCN2CCOCC2)C1` [Example 42, 3-[4-Chloro-3-(4-phenyl-but-1-ynyl)-phenyl]-5-methanesulfonyl-1-(3-morpholin-4-yl-propyl)-4,5,6,7-tetrahydro-1H-pyrazolo[4,3-c]pyridine], the IC50 was 9750 nM.
`CS(=O)(=O)N1CCc2c(c(-c3ccc(Cl)c(CCCCNC4CCCC4)c3)nn2CCCN2CCC(N3CCCC3=O)CC2)C1` [Example 115, 1-[1-(3-{3-[4-Chloro-3-(4-cyclopentylamino-butyl)-phenyl]-5-methanesulfonyl-4,5,6,7-tetrahydro-pyrazolo[4,3-c]pyridin-1-yl}-propyl)-piperidin-4-yl]-pyrrolidin-2-one]: the IC50 came out at 1690 nM.
Take `CS(=O)(=O)N1CCc2c(c(-c3ccc(Cl)c(CCCNS(=O)(=O)c4cccc(Cl)c4)c3)nn2CCCN2CCC(N3CCCC3=O)CC2)C1` [Example 90, 3-Chloro-N-{3-[2-chloro-5-(5-methanesulfonyl-1-{3-[4-(2-oxo-pyrrolidin-1-yl)-piperidin-1-yl]-propyl}-4,5,6,7-tetrahydro-1H-pyrazolo[4,3-c]pyridin-3-yl)-phenyl]-propyl}-benzenesulfonamide]: the IC50 was 420 nM.
As for `CC(C)(C)OC(=O)N1C[C@H]2C[C@@H]1CN2CCCn1nc(-c2ccc(Cl)c(C#Cc3ccc(CNCc4ccc(Cl)cc4)cc3)c2)c2c1CCN(S(C)(=O)=O)C2` [Example 492, 1,1-Dimethylethyl (1R,4R)-5-{3-[3-(4-chloro-3-{[4-({[(4-chlorophenyl)methyl]amino}methyl)phenyl]ethynyl}phenyl)-5-(methylsulfonyl)-4,5,6,7-tetrahydro-1H-pyrazolo[4,3-c]pyridin-1-yl]propyl}-2,5-diazabicyclo[2.2.1]heptane-2-carboxylate], the IC50 worked out at 220 nM.

The assay is the same for the next values; noted with them: CatS IC50.
Turning to `CS(=O)(=O)N1CCc2c(c(-c3ccc(Cl)c(C#Cc4ccccc4CNCc4ccccc4)c3)nn2CCCN2CCOCC2)C1` [Example 386, 1-[2-({2-Chloro-5-[5-(methylsulfonyl)-1-(3-morpholin-4-ylpropyl)-4,5,6,7-tetrahydro-1H-pyrazolo[4,3-c]pyridin-3-yl]phenyl}ethynyl)phenyl]-N-(phenylmethyl)methanamine], the IC50 was 770 nM.
As to `CS(=O)(=O)N1CCc2c(c(-c3ccc(Cl)c(C#Cc4ccc(CNC5CCCC5)cc4)c3)nn2CCCN2CCOCC2)C1` [Example 325, N-{[4-({2-Chloro-5-[5-(methylsulfonyl)-1-(3-morpholin-4-ylpropyl)-4,5,6,7-tetrahydro-1H-pyrazolo[4,3-c]pyridin-3-yl]phenyl}ethynyl)phenyl]methyl}cyclopentanamine], the half-maximal inhibitory concentration (IC50) was 1450 nM.
